Data from ChEMBL document CHEMBL1201862, “PubChem BioAssay data set” (2004).
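Step 1: Grow cells in 96-well plates. Step 2: Expose to compound for 48 hours at 5 concentrations. Step 3: Interpolate endpoints linearly; if unreached, use highest concentration. The concentration for 50% growth inhibition is given as GI50.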 Active and inactive are the calls of the source. Cut-off read from the data, not from the text of the source: active = GI50 up to about 1.1 µM and inactive = higher.

Experiments:
Experiment in all cases: growth of human tumour cells (NCI), 48 h
OVCAR-8 = tested on: OVCAR-8
RXF 631 = tested on: RXF 631
A549 = tested on: A549
KM12 = tested on: KM12
HOP-92 = tested on: HOP-92
SNB-78 = tested on: SNB-78
OVCAR-3 = tested on: OVCAR-3
RXF 393 = tested on: RXF 393
NCI-H460 = tested on: NCI-H460
LOX IMVI = tested on: LOX IMVI
UACC-257 = tested on: UACC-257
KM-20L2 = tested on: KM-20L2
SF-539 = tested on: SF-539
SK-OV-3 = tested on: SK-OV-3
786-0 = tested on: 786-0
LXFL 529 = tested on: LXFL 529
SNB-75 = tested on: SNB-75
HOP-62 = tested on: HOP-62
NCI-H522 = tested on: NCI-H522
HCT-15 = tested on: HCT-15
HT-29 = tested on: HT-29
K562 = tested on: K562
DLD-1 = tested on: DLD-1
NCI-H23 = tested on: NCI-H23
OVCAR-4 = tested on: OVCAR-4
SNB-19 = tested on: SNB-19
M19-MEL = tested on: M19-MEL
DMS-114 = tested on: DMS-114
CCRF-CEM = tested on: CCRF-CEM
HL-60 = tested on: HL-60
HOP-18 = tested on: HOP-18
SF-268 = tested on: SF-268
A498 = tested on: A498
IGROV-1 = tested on: IGROV-1
EKVX = tested on: EKVX
SF-295 = tested on: SF-295
UO-31 = tested on: UO-31
SN12C = tested on: SN12C
SW-620 = tested on: SW-620
SR = tested on: SR
DMS-273 = tested on: DMS-273
CAKI-1 = tested on: CAKI-1
UACC-62 = tested on: UACC-62
HCT-116 = tested on: HCT-116
M14 = tested on: M14
RPMI-8226 = tested on: RPMI-8226
SK-MEL-2 = tested on: SK-MEL-2
U-251 = tested on: U-251
NCI-H226 = tested on: NCI-H226
SK-MEL-28 = tested on: SK-MEL-28
Malme-3M = tested on: Malme-3M
SK-MEL-5 = tested on: SK-MEL-5
ACHN = tested on: ACHN
COLO 205 = tested on: COLO 205
OVCAR-5 = tested on: OVCAR-5
TK-10 = tested on: TK-10
HCC 2998 = tested on: HCC 2998
MOLT-4 = tested on: MOLT-4

Measured: GI50

Cc1cc(Cl)ccc1N1C(=O)C(=O)C(c2nc3ccccc3s2)/C(=N\NC(=O)c2ccccc2O)C1=O (stereo unspecified)
> 100 µM: HCT-15
inactive: OVCAR-8 > 100 µM | RXF 631 > 100 µM | A549 > 100 µM | KM12 > 100 µM | HOP-92 46.7 µM | SNB-78 > 100 µM | OVCAR-3 > 100 µM | RXF 393 > 100 µM | NCI-H460 > 100 µM | LOX IMVI > 100 µM | UACC-257 > 100 µM | KM-20L2 > 100 µM | SF-539 > 100 µM | SK-OV-3 > 100 µM | 786-0 > 100 µM | LXFL 529 > 100 µM | SNB-75 > 100 µM | HOP-62 > 100 µM | NCI-H522 > 100 µM | HT-29 > 100 µM | K562 > 100 µM | DLD-1 > 100 µM | NCI-H23 > 100 µM | OVCAR-4 > 100 µM | SNB-19 > 100 µM | M19-MEL > 100 µM | DMS-114 > 100 µM | CCRF-CEM > 100 µM | HL-60 > 100 µM | HOP-18 > 100 µM | SF-268 > 100 µM | A498 > 100 µM | IGROV-1 > 100 µM | EKVX > 100 µM | SF-295 > 100 µM | UO-31 > 100 µM | SN12C > 100 µM | SW-620 > 100 µM | SR > 100 µM | DMS-273 > 100 µM | CAKI-1 > 100 µM | UACC-62 > 100 µM | HCT-116 > 100 µM | M14 > 100 µM | RPMI-8226 > 100 µM | SK-MEL-2 > 100 µM | U-251 > 100 µM | NCI-H226 > 100 µM | SK-MEL-28 > 100 µM | Malme-3M > 100 µM | SK-MEL-5 > 100 µM | ACHN > 100 µM | COLO 205 > 100 µM | OVCAR-5 > 100 µM | TK-10 > 100 µM | HCC 2998 > 100 µM

Nc1nc(CC2(O)CCCCC2)cc(-c2ccccc2)n1
inactive: OVCAR-8 > 50.2 µM | RXF 631 34.4 µM | A549 26.7 µM | KM12 23.1 µM | HOP-92 > 44.9 µM | SNB-78 > 48.6 µM | OVCAR-3 25.6 µM | RXF 393 > 40.3 µM | NCI-H460 24.3 µM | LOX IMVI 40.4 µM | UACC-257 36.3 µM | KM-20L2 17.5 µM | SF-539 > 74 µM | SK-OV-3 > 100 µM | MOLT-4 16.7 µM | 786-0 21 µM | LXFL 529 > 66.7 µM | SNB-75 > 47.9 µM | HOP-62 > 49.7 µM | NCI-H522 27.2 µM | HT-29 16.6 µM | K562 16.6 µM | DLD-1 22.1 µM | NCI-H23 > 43 µM | OVCAR-4 35.1 µM | SNB-19 31.2 µM | M19-MEL 28.1 µM | DMS-114 23 µM | CCRF-CEM 27.5 µM | HL-60 15.6 µM | HOP-18 35.5 µM | SF-268 > 64.4 µM | A498 33.5 µM | IGROV-1 43 µM | EKVX 35.6 µM | SF-295 38.5 µM | UO-31 > 55 µM | SN12C 20.3 µM | SW-620 25.7 µM | SR 16.5 µM | DMS-273 > 44.9 µM | CAKI-1 51.2 µM | UACC-62 23.4 µM | HCT-116 19.8 µM | M14 29.2 µM | RPMI-8226 23.6 µM | SK-MEL-2 35.6 µM | U-251 39 µM | NCI-H226 > 44.8 µM | SK-MEL-28 > 63.2 µM | Malme-3M > 10 µM | SK-MEL-5 24.9 µM | ACHN 34.4 µM | COLO 205 16.7 µM | OVCAR-5 20.9 µM | TK-10 > 61.8 µM | HCC 2998 26.6 µM
> 43.9 µM: HCT-15

Cc1ccc(C(=O)O/N=C2/CCCCC2CN(C)C)cc1 (stereo unspecified)
> 100 µM: HCT-15
inactive: OVCAR-8 > 100 µM | RXF 631 > 100 µM | A549 > 100 µM | KM12 > 100 µM | HOP-92 > 100 µM | SNB-78 > 100 µM | OVCAR-3 > 100 µM | RXF 393 > 100 µM | NCI-H460 > 100 µM | LOX IMVI > 100 µM | UACC-257 > 100 µM | KM-20L2 > 100 µM | SF-539 > 100 µM | SK-OV-3 > 100 µM | MOLT-4 > 100 µM | 786-0 > 100 µM | LXFL 529 > 100 µM | SNB-75 > 100 µM | HOP-62 > 100 µM | NCI-H522 > 100 µM | HT-29 > 100 µM | K562 > 100 µM | DLD-1 > 100 µM | NCI-H23 > 100 µM | OVCAR-4 > 100 µM | M19-MEL > 100 µM | DMS-114 > 100 µM | CCRF-CEM > 100 µM | HL-60 > 100 µM | HOP-18 > 100 µM | SF-268 > 10 µM | A498 > 100 µM | IGROV-1 > 100 µM | EKVX > 100 µM | SF-295 > 100 µM | UO-31 > 100 µM | SN12C > 100 µM | SR > 100 µM | DMS-273 > 100 µM | CAKI-1 > 100 µM | UACC-62 > 100 µM | HCT-116 > 100 µM | M14 > 100 µM | RPMI-8226 > 100 µM | SK-MEL-2 > 100 µM | U-251 > 100 µM | NCI-H226 > 100 µM | SK-MEL-28 > 100 µM | Malme-3M > 100 µM | SK-MEL-5 > 100 µM | ACHN > 100 µM | COLO 205 > 100 µM | OVCAR-5 > 100 µM | TK-10 > 100 µM | HCC 2998 > 100 µM
